Experimental data reported in ChEMBL document CHEMBL1909623, “Synthesis and preliminary evaluation of amiloride analogs as inhibitors of the urokinase-type plasminogen activator (uPA)” (Bioorg Med Chem Lett, 2011).

target: Sodium/hydrogen exchanger 1 (Homo sapiens) (UniProt P19634); test: Ratio of compound K0.5 to amiloride K0.5 for NHE1
Sequence (P19634 whole entry): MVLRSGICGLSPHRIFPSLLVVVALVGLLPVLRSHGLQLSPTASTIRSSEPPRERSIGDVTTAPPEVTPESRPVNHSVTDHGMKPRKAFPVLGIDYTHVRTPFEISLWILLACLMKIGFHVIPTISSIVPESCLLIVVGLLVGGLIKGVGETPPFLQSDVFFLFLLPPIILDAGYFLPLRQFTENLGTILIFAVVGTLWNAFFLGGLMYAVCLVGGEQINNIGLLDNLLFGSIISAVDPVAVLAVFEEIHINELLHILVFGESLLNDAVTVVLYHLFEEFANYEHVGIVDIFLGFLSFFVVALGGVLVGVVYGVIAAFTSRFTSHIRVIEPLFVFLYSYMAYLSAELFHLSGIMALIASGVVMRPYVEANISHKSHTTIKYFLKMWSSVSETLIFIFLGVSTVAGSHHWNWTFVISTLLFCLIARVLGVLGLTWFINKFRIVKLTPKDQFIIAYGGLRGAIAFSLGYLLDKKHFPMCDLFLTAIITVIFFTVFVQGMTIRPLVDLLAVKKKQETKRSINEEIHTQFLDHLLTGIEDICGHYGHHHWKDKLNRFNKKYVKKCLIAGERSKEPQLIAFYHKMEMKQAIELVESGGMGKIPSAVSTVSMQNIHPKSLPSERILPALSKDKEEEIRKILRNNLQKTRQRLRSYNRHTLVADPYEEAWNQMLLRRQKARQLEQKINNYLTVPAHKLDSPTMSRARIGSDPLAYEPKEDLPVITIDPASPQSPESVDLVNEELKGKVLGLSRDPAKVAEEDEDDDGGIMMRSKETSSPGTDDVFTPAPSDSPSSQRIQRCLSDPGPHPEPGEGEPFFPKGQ

SMILES | Ratio
N=C(N)NC(=O)c1nc(Cl)c(N2CCCCCC2)nc1N | 524
N=C(N)NC(=O)c1nc(Br)c(N2CCCCCC2)nc1N | 566
CCN(c1nc(N)c(C(=O)NC(=N)N)nc1I)C(C)C | 313
CCN(c1nc(N)c(C(=O)NC(=N)N)nc1Cl)C(C)C | 140

target: T1, Urokinase-type plasminogen activator (Homo sapiens, UniProt P00749); test: Inhibition of urokinase-type plasminogen activator

SMILES | IC50
CCOC(=O)CCNc1nc(N)c(C(=O)NC(=N)N)nc1Cl | 25 µM
N=C(N)NC(=O)c1ncc(NCCc2ccccc2)nc1N | 120 µM
Nc1noc(-c2nc(Cl)c(N)nc2N)n1 | > 1000 µM
N=C(N)NC(=O)c1nc(Cl)c(NCc2ccccc2)nc1N | 8 µM
COc1cc(N)c(Cl)cc1C(=O)NC(=N)N | 222 µM
N#CCCNc1nc(N)c(C(=O)NC(=N)N)nc1Cl | 16 µM
N=C(N)NC(=O)c1ncc(N)nc1N | 19 µM
N=C(N)NC(=O)c1cccnc1 [AMINO(NICOTINAMIDO)METHANIMINIUM CHLORIDE] | > 1000 µM
N=C(N)NC(=O)c1nc(Cl)c(NCCNCc2ccccc2)nc1N | 28 µM
N=C(N)NC(=O)c1nc(Cl)c(NCc2ccc(F)cc2)nc1N | 6 µM
N=C(N)NC(=O)c1nc(Cl)c(NCc2cccnc2)nc1N | 17 µM
CN(CCNc1nc(N)c(C(=O)NC(=N)N)nc1Cl)Cc1ccccc1 | 15 µM
CCOP(=O)(O)CCNc1nc(N)c(C(=O)NC(=N)N)nc1Cl | > 1000 µM
N=C(N)NC(=O)c1nc(Cl)c(NCCc2nnn[nH]2)nc1N | 61 µM
N=C(N)NC(=O)c1nc(Br)c(N)nc1N | 5 µM
Cc1ccc(S(=O)(=O)NCCNc2nc(N)c(C(=O)NC(=N)N)nc2Cl)cc1 | 35 µM
N=C(N)NC(=O)c1nc(Cl)c(NCC[n+]2ccccc2)nc1N | 30 µM
N=C(N)NC(=O)c1nc(Cl)c(NCCC(=O)O)nc1N | 102 µM
CCOP(=O)(CNc1nc(N)c(C(=O)NC(=N)N)nc1Cl)OCC | 37 µM
N=C(N)NC(=O)c1nc(Cl)c(NCCP(=O)(O)O)nc1N | > 1000 µM
N=C(N)NC(=O)c1nc(Cl)c(NCc2ccncc2)nc1N | 6 µM
N=C(N)NC(=O)c1c[nH]cn1 | > 1000 µM
N=C(N)NC(=O)c1cnccn1 | > 1000 µM
N=C(N)NC(=O)c1nc(Cl)c(NCP(=O)(O)O)nc1N | > 1000 µM

SMILES | IC50
N=C(N)NC(=O)c1cnc(N)c(Br)n1 | > 1000 µM
N=C(N)NC(=O)c1nc(Cl)cnc1N | > 1000 µM
N=C(N)NC(=O)c1cnc(Cl)c(Cl)c1 | > 1000 µM
COC(=O)CNc1nc(N)c(C(=O)NC(=N)N)nc1Cl | 26 µM
N=C(N)NC(=O)c1ccccc1 [AMINO(BENZAMIDO)METHANIMINIUM CHLORIDE] | > 1000 µM
N=C(N)NC(=O)c1nc(Cl)c(NCCS(=O)(=O)Cc2ccccc2)nc1N | 15 µM
CCN(CC)CCNc1nc(N)c(C(=O)NC(=N)N)nc1Cl | 14 µM
N=C(N)NC(=O)c1nc(Cl)c(N2CCCCCC2)nc1N | 6 µM
N=C(N)NC(=O)c1nc(-c2ccccc2)c(N)nc1N | 10 µM
N=C(N)NC(=O)c1ncc(NCc2ccccc2)nc1N | 43 µM
CCOP(=O)(NNc1nc(N)c(C(=O)NC(=N)N)nc1Cl)OCC | 10 µM
N=C(N)NC(=O)c1nc(Cl)c(NCc2nnn[nH]2)nc1N | 177 µM
N=C(N)NC(=O)c1ccccn1 [AMINO(PICOLINAMIDO)METHANIMINIUM CHLORIDE] | > 1000 µM
N=C(N)NC(=O)c1nc(Cl)c(NCCS(=O)(=O)O)nc1N | > 1000 µM
N=C(N)NC(=O)c1nc(Cl)c(NCCc2ccccc2)nc1N | 16 µM
N=C(N)NC(=O)c1nc(Cl)c(NCc2ccccn2)nc1N | 38 µM
N#CCNc1nc(N)c(C(=O)NC(=N)N)nc1Cl | 50 µM
N=C(N)NC(=O)c1nc(Cl)c(NCCSCc2ccccc2)nc1N | 21 µM
CCOP(=O)(CCNc1nc(N)c(C(=O)NC(=N)N)nc1Cl)OCC | 44 µM
N=C(N)NC(=O)c1nc(I)c(N)nc1N | 2 µM
N=C(N)NC(=O)c1nc(C#Cc2ccccc2)c(N)nc1N | 2 µM
CCN(c1nc(N)c(C(=O)NC(=N)N)nc1Cl)C(C)C | 6 µM
N=C(N)NC(=O)c1nc(Cl)c(NCC(=O)O)nc1N | 110 µM
NNC(=O)c1nc(Cl)c(N)nc1N | > 1000 µM

target: T1, Urokinase-type plasminogen activator; test: Ratio of compound K0.5 to amiloride K0.5 for urokinase-type plasminogen activator

SMILES | Ratio IC50
N=C(N)NC(=O)c1nc(Cl)c(N2CCCCCC2)nc1N | 2
CCN(c1nc(N)c(C(=O)NC(=N)N)nc1Cl)C(C)C | 2

target: Sodium/hydrogen exchanger 1 (Homo sapiens) (UniProt P19634); test: Inhibition of NHE1

SMILES | K0.5
N=C(N)NC(=O)c1nc(Cl)c(N)nc1N | 7 µM
